Test results reported in patent publication US11066443B2 (Hoffmann-La Roche Inc., priority 2017, dated 2021).
≈ marks a conversion by molar mass, not a printed value.

System: P. aeruginosa ATCC27853
Test: Antimicrobial susceptibility testing: microbroth minimum inhibitory concentration (MIC) determination
Format: cell-based
Conditions: Pseudomonas aeruginosa, CLSI microbroth dilution in CAMHB, read after 20 hours, lowest concentration inhibiting >=80% of growth
Protocol: The in vitro antimicrobial activity of the compounds was determined through microbroth minimum inhibitory concentration (MIC) methodology performed according to the Clinical and Laboratory Standard Institute guidelines (CLSI—M07-A9 Jan. 2012. Methods for Dilution Antimicrobial Susceptibility Tests for Bacteria That Grow Aerobically; Approved Standard—Ninth Edition, Clinical and Laboratory Standards Institue, Wayne/PA, US and the CLSI—M100-S24 Jan. 2014. Performance Standards for Antimicrobial Susceptibility Testing; Approved Standard—Fourth Informational Supplement, Clinical and Laboratory Standards Institue, Wayne/PA, US).
The compound stock solution was freshly prepared at 10× the required top concentration for the MIC determination, i.e. at 1280 mg/L, by reconstitution of the dry compound in 50:50 water:DMSO.
Polystyrene non-treated 96 wells microtiter plates were used for preparing panel containing compound serial twofold diluted at two times the final testing concentration (e.g. range from 64 to 0.06 μg/ml) in cation adjusted Mueller Hinton broth medium (CAMHB).
Inoculum was prepared by the “direct colony suspension method”. Colonies of P. aeruginosa ATCC27853 or clinical isolates were suspended in saline solution and adjusted to 0.5 McFarland, diluted 100 times in CAMHB broth and 50 μl added to each well (final concentration of cells ˜5×10^(5) CFU/ml and Final volume/well of 100 μl). Microtiter plates were sealed and incubated at 35±2° C.
MICs values were read after 20 hours of incubation and recorded as the lowest concentration of the antimicrobial that inhibits more or equal to 80% of growth of the organism as detected by the unaided eye and using a microtiter plate optical density reader (OD 600 nm).
Table 1 provides the minimum inhibitory concentration (MIC) in microgram per milliliter of the compounds of present invention obtained against the P. aeruginosa ATCC27853 (Table 1).

MIC	Compound
32 µg/mL (≈ 45.4 µM)	CN1C(=O)[C@H](CCCCN)NC(=O)[C@H](CCCN)NCc2ccccc2Sc2cc(Cl)ccc2CNC(=O)[C@@H]1Cc1c[nH]c2ccccc12 [Example 2, (12S,15S,18S)-15-(4-Amino-butyl)-18-(3-amino-propyl)-5-chloro-12-(1H-indol-3-ylmethyl)-13-methyl-2-thia-10,13,16,19-tetraaza-tricyclo[19.4.0.0*3,8*]pentacosa-1(21),3,5,7,22,24-hexaene-11,14,17-trione]
> 64 µg/mL	CN1C(=O)[C@H](CCCCN)NC(=O)[C@H](CCCN)NCc2ccccc2Sc2c(Cl)cccc2CNC(=O)[C@@H]1Cc1c[nH]c2ccccc12 [Example 3, (12S,15S,18S)-15-(4-Amino-butyl)-18-(3-amino-propyl)-4-chloro-12-(1H-indol-3-ylmethyl)-13-methyl-2-thia-10,13,16,19-tetraaza-tricyclo[19.4.0.0*3,8*]pentacosa-1(21),3,5,7,22,24-hexaene-11,14,17-trione]
16 µg/mL (≈ 20.7 µM)	CN1C(=O)[C@H](CCCCN)NC(=O)[C@H](CCCN)NCc2ccccc2Sc2c(Cl)cc(C(F)(F)F)cc2CNC(=O)[C@@H]1Cc1c[nH]c2ccccc12 [Example 11, (12S,15S,18S)-15-(4-Amino-butyl)-18-(3-amino-propyl)-4-chloro-12-(1H-indol-3-ylmethyl)-13-methyl-6-trifluoromethyl-2-thia-10,13,16,19-tetraaza-tricyclo[19.4.0.0*3,8*]pentacosa-1(25),3,5,7,21,23-hexaene-11,14,17-trione]
32 µg/mL (≈ 42.3 µM)	CN1C(=O)[C@H](CCCCN)NC(=O)[C@H](CCCN)NCc2cc(F)ccc2Sc2c(Cl)cc(Cl)cc2CNC(=O)[C@@H]1Cc1c[nH]c2ccccc12 [Example 12, (12S,15S,18S)-15-(4-Amino-butyl)-18-(3-amino-propyl)-4,6-dichloro-23-fluoro-12-(1H-indol-3-ylmethyl)-13-methyl-2-thia-10,13,16,19-tetraaza-tricyclo[19.4.0.0*3,8*]pentacosa-1(25),3,5,7,21,23-hexaene-11,14,17-trione]
16 µg/mL (≈ 20.7 µM)	CN1C(=O)[C@H](CCCCN)NC(=O)[C@H](CCCN)NCc2ccccc2Sc2c(cc(Cl)cc2C(F)(F)F)CNC(=O)[C@@H]1Cc1c[nH]c2ccccc12 [Example 13, (12S,15S,18S)-15-(4-Amino-butyl)-18-(3-amino-propyl)-6-chloro-12-(1H-indol-3-ylmethyl)-13-methyl-4-trifluoromethyl-2-thia-10,13,16,19-tetraaza-tricyclo[19.4.0.0*3,8*]pentacosa-1(25),3,5,7,21,23-hexaene-11,14,17-trione]
32 µg/mL (≈ 44.5 µM)	Cc1[nH]c2ccccc2c1C[C@H]1C(=O)NCc2cc(Cl)ccc2Sc2ccccc2CN[C@@H](CCCN)C(=O)N[C@@H](CCCCN)C(=O)N1C [Example 15, (12S,15S,18S)-15-(4-Amino-butyl)-18-(3-amino-propyl)-6-chloro-13-methyl-12-(2-methyl-1H-indol-3-ylmethyl)-2-thia-10,13,16,19-tetraaza-tricyclo[19.4.0.0*3,8*]pentacosa-1(21),3,5,7,22,24-hexaene-1,14,17-trione]
32 µg/mL (≈ 45.8 µM)	Cc1cccc2c1Sc1ccccc1CN[C@@H](CCCN)C(=O)N[C@@H](CCCCN)C(=O)N(C)[C@@H](Cc1c(C)[nH]c3ccccc13)C(=O)NC2 [Example 16, (12S,15S,18S)-15-(4-Amino-butyl)-18-(3-amino-propyl)-4,13-dimethyl-12-(2-methyl-1H-indol-3-ylmethyl)-2-thia-10,13,16,19-tetraaza-tricyclo[19.4.0.0*3,8*]pentacosa-1(21),3,5,7,22,24-hexaene-11,14,17-trione]
32 µg/mL (≈ 42.5 µM)	Cc1[nH]c2ccccc2c1C[C@H]1C(=O)NCc2cc(Cl)cc(Cl)c2Sc2ccccc2CN[C@@H](CCCN)C(=O)N[C@@H](CCCCN)C(=O)N1C [Example 17, (12S,15S,18S)-15-(4-Amino-butyl)-18-(3-amino-propyl)-4,6-dichloro-13-methyl-12-(2-methyl-1H-indol-3-ylmethyl)-2-thia-10,13,16,19-tetraaza-tricyclo[19.4.0.0*3,8*]pentacosa-1(21),3,5,7,22,24-hexaene-1,14,17-trione]
32 µg/mL (≈ 45.8 µM)	CCc1ccc2c(c1)CNC(=O)[C@H](Cc1c[nH]c3ccccc13)N(C)C(=O)[C@H](CCCCN)NC(=O)[C@H](CCCN)NCc1ccccc1S2 [Example 18, (12S,15S,18S)-15-(4-Amino-butyl)-18-(3-amino-propyl)-6-ethyl-12-(1H-indol-3-ylmethyl)-13-methyl-2-thia-10,13,16,19-tetraaza-tricyclo[19.4.0.0*3,8*]pentacosa-1(25),3,5,7,21,23-hexaene-11,14,17-trione]
32 µg/mL (≈ 42.9 µM)	CN1C(=O)[C@H](CCCCN)NC(=O)[C@H](CCCN)NCc2ccccc2Sc2ccc(-c3ccccc3)cc2CNC(=O)[C@@H]1Cc1c[nH]c2ccccc12 [Example 19, (12S,15S,18S)-15-(4-Amino-butyl)-18-(3-amino-propyl)-12-(1H-indol-3-ylmethyl)-13-methyl-6-phenyl-2-thia-10,13,16,19-tetraaza-tricyclo[19.4.0.0*3,8*]pentacosa-1(25),3,5,7,21,23-hexaene-11,14,17-trione]
32 µg/mL (≈ 44.1 µM)	CN1C(=O)[C@H](CCCCN)NC(=O)[C@H](CCCN)NCc2ccccc2Sc2ccc(C(C)(C)C)cc2CNC(=O)[C@@H]1Cc1c[nH]c2ccccc12 [Example 20, (12S,15S,18S)-15-(4-Amino-butyl)-18-(3-amino-propyl)-6-tert-butyl-12-(1H-indol-3-ylmethyl)-13-methyl-2-thia-10,13,16,19-tetraaza-tricyclo[19.4.0.0*3,8*]pentacosa-1(25),3,5,7,21,23-hexaene-11,14,17-trione]
32 µg/mL (≈ 44.9 µM)	CC(C)c1ccc2c(c1)CNC(=O)[C@H](Cc1c[nH]c3ccccc13)N(C)C(=O)[C@H](CCCCN)NC(=O)[C@H](CCCN)NCc1ccccc1S2 [Example 21, (12S,15S,18S)-15-(4-Amino-butyl)-18-(3-amino-propyl)-12-(1H-indol-3-ylmethyl)-6-isopropyl-13-methyl-2-thia-10,13,16,19-tetraaza-tricyclo[19.4.0.0*3,8*]pentacosa-1(25),3,5,7,21,23-hexaene-11,14,17-trione]
32 µg/mL (≈ 39.7 µM)	CN1C(=O)[C@H](CCCCN)NC(=O)[C@H](CCCN)NCc2cccnc2Sc2c(cc(C(F)(F)F)cc2C(F)(F)F)CNC(=O)[C@@H]1Cc1c[nH]c2ccccc12 [Example 23, (11S,14S,17S)-14-(4-Amino-butyl)-11-(3-amino-propyl)-17-(1H-indol-3-ylmethyl)-16-methyl-23,25-bis-trifluoromethyl-2-thia-4,10,13,16,19-pentaaza-tricyclo[19.4.0.0*3,8*]pentacosa-1(25),3,5,7,21,23-hexaene-12,15,18-trione]
32 µg/mL (≈ 41 µM)	CN1C(=O)[C@H](CCCCN)NC(=O)[C@H](CCCN)NCc2cccnc2Sc2c(Cl)ccc(-c3ccccc3)c2CNC(=O)[C@@H]1Cc1c[nH]c2ccccc12 [Example 29, (11S,14S,17S)-14-(4-Amino-butyl)-11-(3-amino-propyl)-25-chloro-17-(1H-indol-3-ylmethyl)-16-methyl-22-phenyl-2-thia-4,10,13,16,19-pentaaza-tricyclo[19.4.0.0*3,8*]pentacosa-1(25),3(8),4,6,21,23-hexaene-12,15,18-trione]

System: P. aeruginosa NCTC11454
Test: Antimicrobial susceptibility testing: 50% growth inhibitory concentration (IC50) determination
Format: cell-based
Conditions: Pseudomonas aeruginosa, Iso-Sensitest broth, OD 600 nm every 20 minutes over 16h, growth inhibition during logarithmic growth
Protocol: The in vitro antimicrobial activity of the compounds was alternatively determined according to the following procedure: The assay used a 10-points Iso-Sensitest broth medium to measure quantitatively the in vitro activity of the compounds against P. aeruginosa NCTC11454. Stock compounds in DMSO were serially twofold diluted (e.g. range from 50 to 0.097 μM final concentration) in 384 wells microtiter plates and inoculated with 49 μl the bacterial suspension in Iso-Sensitest medium to have a final cell concentration of ˜5×10^(5) CFU/ml in a final volume/well of 50 ul/well. Microtiter plates were incubated at 35±2° C. Bacterial cell growth was determined with the measurement of optical density at λ=600 nm each 20 minutes over a time course of 16h. Growth inhibition was calculated during the logarithmic growth of the bacterial cells with determination of the concentration inhibiting 50% (IC50) and 90% (IC90) of the growth. Table 2 provides the 50% growth inhibitory concentrations (IC50) in micromoles per liter of the compounds of present invention obtained against P. aeruginosa NCTC11454.

IC50	Compound
> 50 µM	CN1C(=O)[C@H](CCCCN)NC(=O)[C@H](CCCN)NCc2ccccc2Sc2cc(Cl)ccc2CNC(=O)[C@@H]1Cc1c[nH]c2ccccc12 [Example 2, (12S,15S,18S)-15-(4-Amino-butyl)-18-(3-amino-propyl)-5-chloro-12-(1H-indol-3-ylmethyl)-13-methyl-2-thia-10,13,16,19-tetraaza-tricyclo[19.4.0.0*3,8*]pentacosa-1(21),3,5,7,22,24-hexaene-11,14,17-trione]
32 µM	Cc1[nH]c2ccccc2c1C[C@H]1C(=O)NCc2cc(Cl)ccc2Sc2ccccc2CN[C@@H](CCCN)C(=O)N[C@@H](CCCCN)C(=O)N1C [Example 15, (12S,15S,18S)-15-(4-Amino-butyl)-18-(3-amino-propyl)-6-chloro-13-methyl-12-(2-methyl-1H-indol-3-ylmethyl)-2-thia-10,13,16,19-tetraaza-tricyclo[19.4.0.0*3,8*]pentacosa-1(21),3,5,7,22,24-hexaene-1,14,17-trione]
26.6 µM	CN1C(=O)[C@H](CCCCN)NC(=O)[C@H](CCCN)NCc2cccnc2Sc2c(Cl)ccc(-c3ccc(N4CCNCC4)cc3)c2CNC(=O)[C@@H]1Cc1c[nH]c2ccccc12 [Example 55, (11S,14S,17S)-14-(4-Amino-butyl)-11-(3-amino-propyl)-25-chloro-17-(1H-indol-3-ylmethyl)-16-methyl-22-(4-piperazin-1-yl-phenyl)-2-thia-4,10,13,16,19-pentaaza-tricyclo[19.4.0.0*3,8*]pentacosa-1(25),3(8),4,6,21,2-hexaene-12,15,18-trione]
